In patent US12473305B2, “Pyrazole boronic acid compound, pharmaceutical composition containing same, and uses thereof” (BEIJING SONGRUN PHARMACEUTICAL TECHNOLOGY CO., LTD., priority 2020, dated 2025):
pIC50: −log10 of the molar value. Counter-ions that a name gives are not always drawn.

Assays:
[1] = test system: non-small cell lung cancer cell line A549; assay: CellTiter-Glo tumor cell proliferation, A549; assay type: cell-based, human; details: Homo sapiens, A549, 72 h; for inhibition at 1 µM / inhibition at 10 µM: read-out: Inhibition rate A549 (%)
Description: (§1) The effect of compounds on tumor cell proliferation was detected by CellTiter-Glo method. Human melanoma cell line A375, non-small cell lung cancer cell line A549, human lung adenocarcinoma cell line H1299, colorectal cancer cell line HCT116, liver cancer cell line HepG2 and gastric cancer cell line MGC80-3 were cultured in vitro. The cells were collected after growing to the logarithmic growth phase, centrifuged at 1000 rpm for 5 min, and suspended in an appropriate amount of medium after discarding the supernatant, and the cell concentration was adjusted to 2×10^4/mL. The cell suspension was inoculated onto the 384-well cell culture plate, with 50 μL per well. After being cultured in a cell incubator (37° C., 5% CO2) for 24 h, 5 μL of drug diluted by the cell culture medium was added into each well for the treatment group. Each drug was provided in triplicate. After 72 h incubation in the incubator, 20 μL of CellTiter-Glo was added into each well, and the relative luminescence unit (RLU) was measured with Multimode Microplate Reader Varioskan Flash (Thermo Scientific, USA) after placed at 37° C. for 20 min, and compared with the RLU of the control group. SigmaPlot 10.0 software was used to calculate the inhibition rate and IC50 value.

[2] = test system: Human melanoma cell line A375; assay: CellTiter-Glo tumor cell proliferation, A375; assay type: cell-based; details: Homo sapiens, A-375, 72 h; for inhibition at 1 µM / inhibition at 10 µM: read-out: Inhibition rate A375 (%)
Description: as §1

[3] = test system: colorectal cancer cell line HCT116; assay: CellTiter-Glo tumor cell proliferation, HCT116; assay type: cell-based, human; details: 72 h; for inhibition at 1 µM / inhibition at 10 µM: read-out: Inhibition rate HCT116 (%); for pIC50: CellTiter-Glo
Description: as §1

With `CC(C)C[C@H](NC(=O)Cn1nc(-c2ccccc2OS(=O)(=O)c2ccc(C(F)(F)F)cc2)cc1-c1ccccc1)B(O)O` [Compound 2, (R)-(3-methyl-1-(2-(5-phenyl-3-(2-(((4-(trifluoromethyl)phenyl)sulfonyl)oxy)phenyl)-1H-pyrazol-1-yl)acetamido)butyl)boronic acid] the inhibition at 1 µM [1] was 15.1%, the inhibition at 10 µM [1] was 61.7% and the inhibition at 1 µM [2] was 8.6%. The inhibition at 10 µM [2] was 97.8%, the inhibition at 1 µM ([3]; Homo sapiens, HCT-116) was 1.4% and the inhibition at 10 µM ([3]; Homo sapiens, HCT-116) was 97.9%.

In the case of `CC(C)C[C@H](NC(=O)Cn1nc(-c2ccccc2OS(=O)(=O)c2ccccc2C(F)(F)F)cc1-c1ccccc1)B(O)O` [Compound 3, (R)-(3-methyl-1-(2-(5-phenyl-3-(2-(((2-(trifluoromethyl)phenyl)sulfonyl)oxy)phenyl)-1H-pyrazol-1-yl)acetamido)butyl)boronic acid], the inhibition at 1 µM [1] was 17.1%, the inhibition at 10 µM [1] was 60.6% and the inhibition at 1 µM [2] was 5.7%. It also gave an inhibition at 10 µM [2] of 98.2%, an inhibition at 1 µM ([3]; Homo sapiens, HCT-116) of 3% and an inhibition at 10 µM ([3]; Homo sapiens, HCT-116) of 97.8%.

`CC(C)C[C@H](NC(=O)Cn1nc(-c2ccccc2OS(=O)(=O)c2cccc(F)c2)cc1-c1ccccc1)B(O)O` [Compound 4, (R)-(1-(2-(3-(2-(((3-fluorophenyl)sulfonyl)oxy)phenyl)-5-phenyl-1H-pyrazol-1-yl)-acetamido)-3-methylbutyl)boronic acid] showed an inhibition at 1 µM [1] of 15%, an inhibition at 10 µM [1] of 69.3% and an inhibition at 1 µM [2] of 5.6%. It also gave an inhibition at 10 µM [2] of 98.2%, an inhibition at 1 µM ([3]; Homo sapiens, HCT-116) of 6.2% and an inhibition at 10 µM ([3]; Homo sapiens, HCT-116) of 97.6%.

`CC(C)C[C@H](NC(=O)Cn1nc(-c2ccccc2OS(=O)(=O)c2cccc(Cl)c2)cc1-c1ccccc1)B(O)O` [Compound 5, (R)-(1-(2-(3-(2-(((3-chlorophenyl)sulfonyl)oxy)phenyl)-5-phenyl-1H-pyrazol-1-yl)-acetamido)-3-methylbutyl)boronic acid] showed an inhibition at 1 µM [1] of 10.2%, an inhibition at 10 µM [1] of 67.2% and an inhibition at 1 µM [2] of 2.2%. For the same compound, the inhibition at 10 µM [2] was 97.9%, the inhibition at 1 µM ([3]; Homo sapiens, HCT-116) was 9% and the inhibition at 10 µM ([3]; Homo sapiens, HCT-116) was 97.3%.

Compound `CC(C)C[C@H](NC(=O)Cn1nc(-c2ccccc2OS(=O)(=O)c2cccc(Br)c2)cc1-c1ccccc1)B(O)O` [Compound 6, (R)-(1-(2-(3-(2-(((3-bromophenyl)sulfonyl)oxy)phenyl)-5-phenyl-1H-pyrazol-1-yl)-acetamido)-3-methylbutyl)boronic acid] has an inhibition at 1 µM [1] of 13.3%, an inhibition at 10 µM [1] of 64.7% and an inhibition at 1 µM [2] of 7%. For the same compound, the inhibition at 10 µM [2] was 95%, the inhibition at 1 µM ([3]; Homo sapiens, HCT-116) was 5.9% and the inhibition at 10 µM ([3]; Homo sapiens, HCT-116) was 97%.

Compound `CC(C)C[C@H](NC(=O)Cn1nc(-c2ccccc2OS(=O)(=O)c2cc(Cl)ccc2Cl)cc1-c1ccccc1)B(O)O` [Compound 7, (R)-(1-(2-(3-(2-(((2,5-dichlorophenyl)sulfonyl)oxy)phenyl)-5-phenyl-1H-pyrazol-1-yl)-acetamido)-3-methylbutyl)boronic acid] has an inhibition at 1 µM [1] of 16.5%, an inhibition at 10 µM [1] of 52% and an inhibition at 1 µM [2] of 3.7%. The inhibition at 10 µM [2] was 96%, the inhibition at 1 µM ([3]; Homo sapiens, HCT-116) was 3.5% and the inhibition at 10 µM ([3]; Homo sapiens, HCT-116) was 96.6%.

With `Cc1cccc(S(=O)(=O)Oc2ccccc2-c2cc(-c3ccccc3)n(CC(=O)N[C@@H](CC(C)C)B(O)O)n2)c1` [Compound 8, (R)-(3-methyl-1-(2-(5-phenyl-3-(2-((m-tolylsulfonyl)oxy)phenyl)-1H-pyrazol-1-yl)acetamido)butyl)boronic acid] the inhibition at 1 µM [1] was 2.9%, the inhibition at 10 µM [1] was 73.4% and the inhibition at 1 µM [2] was 1.8%. For the same compound, the inhibition at 10 µM [2] was 98.9%, the inhibition at 1 µM ([3]; Homo sapiens, HCT-116) was 2.1% and the inhibition at 10 µM ([3]; Homo sapiens, HCT-116) was 98.5%.

Work on `CC(C)C[C@H](NC(=O)Cn1nc(-c2ccccc2OS(=O)(=O)c2cccs2)cc1-c1ccccc1)B(O)O` [Compound 9, (R)-(3-methyl-1-(2-(5-phenyl-3-(2-((thiophen-2-ylsulfonyl)oxy)phenyl)-1H-pyrazol-1-yl)acetamido)butyl)boronic acid] yielded an inhibition at 1 µM [1] of 3.6%, an inhibition at 10 µM [1] of 83.2% and an inhibition at 1 µM [2] of 4.6%. The inhibition at 10 µM [2] was 98.3%, the inhibition at 1 µM ([3]; Homo sapiens, HCT-116) was 2.9% and the inhibition at 10 µM ([3]; Homo sapiens, HCT-116) was 98.3%.

For `CC(C)C[C@H](NC(=O)Cn1nc(-c2ccccc2OS(=O)(=O)c2ccccn2)cc1-c1ccccc1)B(O)O` [Compound 10, (R)-(1-(2-(3-(2-((pyridin-2-ylsulfonyl)oxy)phenyl)-5-phenyl-1H-pyrazol-1-yl)acetamido)-3-methylbutyl)boronic acid], the inhibition at 1 µM [1] was 0.1%, the inhibition at 10 µM [1] was 72.9% and the inhibition at 1 µM [2] was 1.5%. The inhibition at 10 µM [2] was 98%, the inhibition at 1 µM ([3]; Homo sapiens, HCT-116) was 6.6% and the inhibition at 10 µM ([3]; Homo sapiens, HCT-116) was 98%.

`CC(C)C[C@H](NC(=O)Cn1nc(-c2cccc(OS(=O)(=O)c3cccc(C(F)(F)F)c3)c2)cc1-c1ccccc1)B(O)O` [Compound 11, (R)-(3-methyl-1-(2-(5-phenyl-3-(3-(((3-(trifluoromethyl)phenyl)sulfonyl)oxy)phenyl)-1H-pyrazol-1-yl)acetamido)butyl)boronic acid] gave an inhibition at 1 µM [1] of 63.4%, an inhibition at 10 µM [1] of 90.3% and a pIC50 ([1]; CellTiter-Glo) of 5.97. For the same compound, the inhibition at 1 µM [2] was 90.2%, the inhibition at 10 µM [2] was 98.8% and the pIC50 ([2]; CellTiter-Glo) was 5.59. The inhibition at 1 µM ([3]; Homo sapiens, HCT-116) was 95.4%, the inhibition at 10 µM ([3]; Homo sapiens, HCT-116) was 98.4% and the pIC50 ([3]; Homo sapiens, HCT-116) was 6.15.

Compound `CC(C)C[C@H](NC(=O)Cn1nc(-c2ccc(OS(=O)(=O)c3cccc(C(F)(F)F)c3)cc2)cc1-c1ccccc1)B(O)O` [Compound 12, (R)-(3-methyl-1-(2-(5-phenyl-3-(4-(((3-(trifluoromethyl)phenyl)sulfonyl)oxy)phenyl)-1H-pyrazol-1-yl)acetamido)butyl)boronic acid] has an inhibition at 1 µM [1] of 45.5%, an inhibition at 10 µM [1] of 85.3% and an inhibition at 1 µM [2] of 83%. The inhibition at 10 µM [2] was 98.7%, the inhibition at 1 µM ([3]; Homo sapiens, HCT-116) was 45.8% and the inhibition at 10 µM ([3]; Homo sapiens, HCT-116) was 96.3%.

`CC(C)C[C@H](NC(=O)Cn1nc(-c2ccccc2OS(=O)(=O)c2cccc(C(F)(F)F)c2)cc1-c1ccc(Br)cc1)B(O)O` [Compound 13, (R)-(1-(2-(5-(4-bromophenyl)-3-(2-(((3-(trifluoromethyl)phenyl)sulfonyl)oxy)phenyl)-1H-pyrazol-1-yl)acetamido)-3-methylbutyl)boronic acid] showed an inhibition at 1 µM [1] of 4.5%, an inhibition at 10 µM [1] of 10.4% and an inhibition at 1 µM [2] of 8.1%. For the same compound, the inhibition at 10 µM [2] was 41.3%, the inhibition at 1 µM ([3]; Homo sapiens, HCT-116) was 8.2% and the inhibition at 10 µM ([3]; Homo sapiens, HCT-116) was 3.3%.

In the case of `CC(C)C[C@H](NC(=O)Cn1nc(-c2ccccc2OS(=O)(=O)c2cccc(C(F)(F)F)c2)cc1-c1cccc(Br)c1)B(O)O` [Compound 14, (R)-(1-(2-(5-(3-bromophenyl)-3-(2-(((3-(trifluoromethyl)phenyl)sulfonyl)oxy)phenyl)-1H-pyrazol-1-yl)acetamido)-3-methylbutyl)boronic acid], the inhibition at 1 µM [1] was 10.8%, the inhibition at 10 µM [1] was 8% and the inhibition at 1 µM [2] was 16.5%. It also gave an inhibition at 10 µM [2] of 50.4%, an inhibition at 1 µM ([3]; Homo sapiens, HCT-116) of 9.9% and an inhibition at 10 µM ([3]; Homo sapiens, HCT-116) of 9.2%.

Compound `CC(C)[C@H](NC(=O)Cn1nc(-c2ccccc2OS(=O)(=O)c2cccc(C(F)(F)F)c2)cc1-c1ccccc1Br)B(O)O` [Compound 15, (R)-(1-(2-(5-(2-bromophenyl)-3-(2-(((3-trifluoromethylphenyl)sulfonyl)oxy)phenyl)-1H-pyrazol-1-yl)acetamido)isobutyl)boronic acid] has an inhibition at 1 µM [1] of 7.5%, an inhibition at 10 µM [1] of 1.5% and an inhibition at 1 µM [2] of 3%. For the same compound, the inhibition at 10 µM [2] was 67.2%, the inhibition at 1 µM ([3]; Homo sapiens, HCT-116) was 5% and the inhibition at 10 µM ([3]; Homo sapiens, HCT-116) was 3.6%.

In the case of `CC(C)[C@H](NC(=O)CN1NC(C)(c2cccc(OCCN3CCCC3)c2)C=C1c1ccccc1)B(O)O` (stereo partly drawn) [Compound 33, (R)-(3-methyl-1-(2-(5-phenyl-3-(3-(2-(pyrrolidin-1-yl)ethoxy)phenyl)-1H-pyrazol-1-yl)acetamido)isobutyl)boronic acid hydrochloride], the pIC50 ([3]; Homo sapiens, HCT-116) was 6.03.

Compound `CC(C)[C@H](NC(=O)CN1NC(C)(c2cccc(OCCN3CCCCC3)c2)C=C1c1ccccc1)B(O)O` (stereo partly drawn) [Compound 34, (R)-(3-methyl-1-(2-(5-phenyl-3-(3-(2-(piperidin-1-yl)ethoxy)phenyl)-1H-pyrazol-1-yl)acetamido)isobutyl)boronic acid hydrochloride] has a pIC50 ([3]; Homo sapiens, HCT-116) of 6.05.

Compound `CC(C)C[C@H](NC(=O)Cn1nc(-c2cccc(OCCN3CC(C)OC(C)C3)c2)cc1-c1ccccc1)B(O)O` (stereo partly drawn) [Compound 36, ((1R)-1-(2-(3-(3-(2-(2,6-dimethylmorpholino)ethoxy)phenyl)-5-phenyl-1H-pyrazol-1-yl)acetamido)-3-methylbutyl)boronic acid hydrochloride] has a pIC50 ([3]; Homo sapiens, HCT-116) of 7.24.

“(R)-(1-(2-(3-(N,N-diethylethoxy)phenyl)-5-phenyl-1H-pyrazol-1-yl)acetamido)isobutyl)boronic acid hydrochloride [Compound 32]” was tested, and the pIC50 [3] was 6.37.

For “(R)-(3-methyl-1-(2-(3-(3-(2-(4-methylpiperazin-1-yl)ethoxy)phenyl)phenyl)-5-phenyl-1H-pyrazol-1-yl)acetamido)butyl)boronic acid hydrochloride [Compound 35]”, the pIC50 [3] was 6.55.
